Source: ChEMBL document CHEMBL5550119, “Design, synthesis, and evaluation of formylpiperazine analogs of Ferrostatin-1 as novel improved ferroptosis inhibitors” (Bioorg Med Chem, 2024)
In brackets after ≈: the same amount, converted by molar mass. Activity calls are given as the source filed them. No cut-off for these calls is given here.

Legend:
[1] = Solubility of compound in PBS buffer at pH 7.4 at 3.13 to 200 uM incubated for 2 hrs by turbidity based assay; assay type: physicochemical; conditions: dose 3.13-200 µM
HUVEC [2] = test: Anti-ferroptosis activity in erastin-induced HUVEC cells assessed as reduction in mitochondrial impairment by measuring reduction in number of JC-1 monomers at 10 uM incubated for 24 hrs by JC-1 fluorescent probe based fluorescence microscopic analysis; assay type: functional, cell-based; conditions: Homo sapiens
[3] = Antioxidant activity assessed as DPPH radical scavenging activity incubated under dark condition for 30 mins by absorbance based analysis; assay type: functional
[4] = Metabolic stability in rat liver microsomes assessed as half life at […] incubated for 2 hrs in presence of NADPH by LC-MS/MS analysis; assay type: ADME, Microsome
HUVEC [5] = test: Anti-ferroptosis activity in erastin-induced HUVEC cells assessed as increase in GPX4 protein level at 10 uM incubated for 24 hrs by Western blot analysis; assay type: functional, cell-based; conditions: Homo sapiens
[6] = Antioxidant activity assessed as DPPH radical scavenging activity at 50 uM incubated under dark condition for 30 mins by absorbance based analysis relative to control; assay type: functional
HUVEC [7] = test: Anti-ferroptosis activity in erastin-induced HUVEC cells assessed as reduction in cytoplasmic ferrous ion level at 10 uM incubated for 24 hrs by FerroOrange fluorescent probe based fluorescence microscopic analysis; assay type: functional, cell-based; conditions: Homo sapiens
[8] = Metabolic stability in human liver microsomes assessed as half life at […] incubated for 2 hrs in presence of NADPH by LC-MS/MS analysis; assay type: ADME, Microsome
HUVEC [9] = test: Anti-ferroptosis activity in erastin-induced HUVEC cells assessed as reduction in ROS level by measuring reduction in DCF fluorescence intensity at 10 uM incubated for 24 hrs by DCFH-DA fluorescent probe based fluorescence microscopic analysis; assay type: functional, cell-based; conditions: Homo sapiens
HUVEC [10] = test: Anti-ferroptosis activity in erastin-induced HUVEC cells assessed as increase in GSH level at 10 uM incubated for 24 hrs; assay type: functional, cell-based; conditions: Homo sapiens
HUVEC [11] = test: Anti-ferroptosis activity in HUVEC cells assessed as inhibition of erastin-induced ferroptosis by measuring lethality suppression incubated for 24 hrs by SRB assay; assay type: functional, cell-based; conditions: Homo sapiens
HUVEC [12] = test: Anti-ferroptosis activity in erastin-induced HUVEC cells assessed as reduction in lipid peroxidation level at 10 uM incubated for 24 hrs; assay type: functional, cell-based; conditions: Homo sapiens
HUVEC [13] = test: Anti-ferroptosis activity in erastin-induced HUVEC cells assessed as reduction in malondialdehyde level at 10 uM incubated for 24 hrs; assay type: functional, cell-based; conditions: Homo sapiens
HUVEC [14] = test: Anti-ferroptosis activity in HUVEC cells assessed as inhibition of erastin-induced ferroptosis by measuring lethality suppression at 10 uM incubated for 24 hrs by SRB assay; assay type: functional, cell-based; conditions: Homo sapiens

Compound: CCOC(=O)c1ccc(NC2CCCCC2)c(N)c1
- solubility kinetic at 2 h [1]: > 200 µM
- Activity (HUVEC [2]): Active
- IC50 [3]: 54.3 µM
- half-life [4]: 18.4 min
- Activity (HUVEC [5]): Active
- Activity [6]: 52.5%
- Activity (HUVEC [7]): Active
- half-life [8]: 16.8 min
- Activity (HUVEC [9]): Active
- Activity (HUVEC [10]): Active

Compound: CS(=O)(=O)c1ccc(CN2CCN(C(=O)c3ccc(NC4CCCCC4)c(NCc4ccccc4)c3)CC2)cc1
- solubility kinetic at 2 h [1]: 28.6 µM (≈ 16 µg/mL)
- Activity (HUVEC [2]): Active
- IC50 [3]: 28.9 µM
- half-life [4]: 35.7 min
- Activity (HUVEC [5]): Active
- Activity [6]: 54%
- EC50 (HUVEC [11]): 0.5 µM
- Activity (HUVEC [7]): Active
- Activity (HUVEC [12]): Active
- half-life [8]: 50.2 min
- Activity (HUVEC [13]): Active
- Activity (HUVEC [9]): Active
- Activity (HUVEC [10]): Active

Compound: O=C(c1ccc(NC2CCCCC2)c(NCc2ccccc2)c1)N1CCN(Cc2ccc(F)cc2Br)CC1
- solubility kinetic at 2 h [1]: 28.6 µM (≈ 16.6 µg/mL)
- IC50 [3]: 60.8 µM
- Activity [6]: 50.5%
- EC50 (HUVEC [11]): 0.73 µM

Compound: CCOC(=O)c1ccc(NC2CCCCC2)c(NCc2ccccc2)c1
- solubility kinetic at 2 h [1]: 6.2 µM (≈ 2.19 µg/mL)
- IC50 [3]: 46.8 µM
- Activity [6]: 56.4%

Compound: COc1ccc(Br)c(CN2CCN(C(=O)c3ccc(NC4CCCCC4)c(NCc4ccccc4)c3)CC2)c1
- solubility kinetic at 2 h [1]: 20 µM (≈ 11.8 µg/mL)
- IC50 [3]: 41.3 µM
- Activity [6]: 63.8%
- EC50 (HUVEC [11]): 0.68 µM

Compound: O=C(c1ccc(NC2CCCCC2)c(NCc2ccccc2)c1)N1CCN(Cc2ccncc2)CC1
- solubility kinetic at 2 h [1]: 20 µM (≈ 9.67 µg/mL)
- IC50 [3]: 43.6 µM
- Activity [6]: 55.4%
- EC50 (HUVEC [11]): 0.79 µM

Compound: O=C(c1ccc(NC2CCCCC2)c(NCc2ccccc2)c1)N1CCN(Cc2ccc(-c3ccccc3)c(-c3ccccc3)c2)CC1
- solubility kinetic at 2 h [1]: 22.2 µM (≈ 14.1 µg/mL)
- IC50 [3]: 42.9 µM
- Activity [6]: 54%
- EC50 (HUVEC [11]): 0.61 µM

Compound: CN1CCN(C(=O)c2ccc(NC3CCCCC3)c(NCc3ccccc3)c2)CC1
- Activity (HUVEC [14]): inactive
